The values below are quoted from earlier work in patent publication US12605434B2, “Composition for preventing or treating autoimmune diseases” (STATENS SERUM INSTITUT, priority 2021, dated 2026).

The data set concerns Th17 polarization.

In the case of `CC1=C(/C=C/C(C)=C/C=C/C(C)=C/C(=O)O)C(C)(C)CCC1` [ATRA, all-trans retinoic acid], under “Elias_2008, Kwok_2012”, the FoxP3 expression result is reported as “enhancing FoxP3 expression” and the Th17 polarization entry is “inhibit the Th17 polarization”. For the same compound, the “RORγT in T cells” value (Mucinda_2007) is on record as “reduction of RORγT”.
